Assay results taken from US8816079B2, “Amide derivative and use thereof as medicine” (Mitsubishi Tanabe Pharma Corporation, priority 2010, dated 2014).

Assays:
[1] = test system: proMMP-9 production by human TNFα stimulated THP-1 cell; assay: proMMP-9 production by human TNFα stimulated THP-1 cell; assay type: cell-based; conditions: THP-1 cells, human TNFα 10 ng/mL, 24 hr; IC50 from 3 points at 10, 100 and 1,000 nmol/L; read-out: proMMP-9 production suppression (IC50)
Description: (§1) THP-1 cell (human monocytic leukemia cell line) was adjusted to 1×10^7 cells/mL in a culture medium (10% fetal bovine serum/RPMI1640 medium), and dispensed to a 96 well multiplate. This was equilibrated under the conditions of 37° C./5% CO2, and a culture medium containing human TNFα (final concentration 10 ng/mL) and a test compound was added thereto. After incubation under the conditions of 37° C./5% CO2 for 24 hr, the culture medium was centrifuged and the culture supernatant was collected, which was subjected to the following measurement.
Quantification of proMMP-9 in Culture Supernatant
The proMMP-9 concentration of the collected culture supernatant was quantified using a commercially available measurement reagent (manufactured by GE Healthcare, MMP-9, Human, Biotrak ELISA System).
Calculation of proMMP-9 Suppression Rate
The proMMP-9 suppression rate of the test compound was calculated from the following formula: % suppression=100−((Test−Min)/(Max−Min)×100) wherein Max is proMMP-9 concentration of culture supernatant induced by stimulation with human TNFα, without addition of a test compound (added with solvent alone) Min is proMMP-9 concentration of culture supernatant without addition of a test compound (added with solvent alone) and without stimulation with human TNFα, and Test is proMMP-9 concentration of culture supernatant induced by stimulation with human TNFα when a test compound is added.
Furthermore, the concentration of the test compound necessary for suppressing proMMP-9 production by human TNFα stimulated THP-1 cell by 50% ([…]) was calculated from 3 points of proMMP-9 suppression rate at test compound concentrations of 10, 100 and 1,000 nmol/L.

[2] = test system: proMMP-2 production by THP-1 cell; assay: hemostatic type proMMP-2 production by THP-1 cell; assay type: cell-based, human; conditions: THP-1 cells without stimulation, 24 hr, test compound 2 μM
Description: as §1, with “containing” for “containing human TNFα (final concentration 10 ng/mL) and”
Quantification of proMMP-2 in Culture Supernatant
The proMMP-2 concentration of the collected culture supernatant was quantified using a commercially available measurement reagent (manufactured by GE Healthcare, MMP-2, Human, Biotrak ELISA System).
Calculation of proMMP-2 Suppression Rate
The proMMP-2 suppression rate of the test compound was calculated from the following formula: % suppress=100−((Test/Cont)×100). wherein Cont is proMMP-2 concentration of culture supernatant without addition of a test compound (added with solvent alone) and Test is proMMP-2 concentration of culture supernatant with addition of a test compound.

[3] = test system: rat monoiodoacetic acid-induced osteoarthritis model; assay: articular joints injury of rat monoiodoacetic acid-induced osteoarthritis model; assay type: in vivo; conditions: LEW rat, 10 mg/kg oral once a day to day 6, scored on day 7; disease group (solvent) 5.8 ± 0.2
Description: Monoiodoacetic acid solution (0.3 mg/25 μL) was injected into the right hindpaw knee joint cavity of anesthetized rats (LEW, male, 7-week-old). A test compound was orally administered once a day from immediately after monoiodoacetic acid injection to day 6 at a dose of 10 mg/kg. On day 7, right hindpaw knee joint was taken from euthanized rats, and fixed with 10% neutral formalin solution. A pathology specimen of knee joint was prepared, stained with Hematoxylin Eosin and Safranine O, and the state of joint cartilage injury was scored under microscopic observation. For articular joint injury scores, changes in each pathological finding in medial condyle of femur and medial condyle of tibia (cartilage surface tuberosity, erosion/ulcer/fibrillation, chondrocyte disorganization/disappearance/hypertrophy, reduction of Safranine staining) were divided into mild, moderate and severe according to the method of Kobayashi et al. (Kobayashi K et al. J. Vet. Med. Sci. 65, 1195 1199 2003), and indicated in the scores of 1, 2 and 3 and totaled. Furthermore, an average of the score of medial condyle of femur and that of medial condyle of tibia was determined and used as an articular joint injury score.

[4] = test system: rat adjuvant induced arthritis model; assay: hindpaw edema of rat adjuvant induced arthritis model; assay type: in vivo; conditions: LEW rat, 10 mg/kg oral once a day day 15 to day 20, difference of hindpaw volume day 15 to day 21; disease group (solvent) 0.63 ± 0.13
Description: Anesthetized rats (LEW, male, 6-week-old) were immunized with M. Butyricum (5 mg/mL) at a dose of 0.1 mL/body by subcutaneous administration from the tail root. […] […] The amount of hindpaw edema was the difference in the amount between hindpaw volume on day 15 and that on day 21.

[5] = test system: rat dinitrobenzene-induced colitis model; assay: large intestine weight increase of rat dinitrobenzene-induced colitis model; assay type: in vivo; conditions: Wistar rat, 10 mg/kg oral once a day, day 8; normal group 0.215 ± 0.011, pathology group 0.633 ± 0.041
Description: A dinitrobenzene solution (30 mg/0.1 mL) was injected into the large intestine of anesthetized rats (Wistar, male, 6-week-old). […] On day 8, the large intestine was isolated from euthanized rats, and the wet weight thereof was measured. The large intestine weight was amended to the weight per 100 g body weight of the rats on day 8.

Compound | IC50 [1] [nM] | other results
Cc1cc(C2CC2)cnc1N1CCN(C(=O)c2ccc(CN3CCCS3(=O)=O)cc2)CC1 [Example 245, [4-(5-cyclopropyl-3-methylpyridin-2-yl)piperazin-1-yl][4-(1,1-dioxo-1λ^6-isothiazolidin-2-ylmethyl)phenyl]methanone] | 73 | 
Cc1cnc(N2CCN(C(=O)c3ccc(N4CCCS4(=O)=O)cc3C)CC2)c(C)c1 [Example 154, [4-(3,5-Dimethylpyridin-2-yl)piperazin-1-yl][4-(1,1-dioxo-1λ^6-isothiazolidin-2-yl)-2-methylphenyl]methanone] | 82 | MMP-2 production suppression (% suppression, 2 μM) [2]: 13.0%; articular joint injury score of compound administration group [3]: 4.6 ± 0.4
Cc1cnc(N2CCN(C(=O)c3ccc(N4CCCS4(=O)=O)cc3F)CC2)c(C)c1 [Example 130, [4-(3,5-dimethylpyridin-2-yl)piperazin-1-yl][4-(1,1-dioxo-1λ^6-isothiazolidin-2-yl)-2-fluorophenyl]methanone] | 44 | MMP-2 production suppression (% suppression, 2 μM) [2]: 8.0%
Cc1cnc(N2CCN(C(=O)c3ccc(N4CCCC4=O)cc3F)CC2)c(C)c1 [Example 282, 1-{4-[4-(3,5-dimethylpyridin-2-yl)piperazine-1-carbonyl]-3-fluorophenyl}pyrrolidin-2-one] | 76 | 
Cc1ccc(N2CCN(C(=O)c3ccc(N4CCCS4(=O)=O)cc3S(C)(=O)=O)CC2)c(C)c1 [Example 11, [4-(2,4-dimethylphenyl)piperazin-1-yl][4-(1,1-dioxo-1λ^6-isothiazolidin-2-yl)-2-methanesulfonylphenyl]methanone] |  | hindpaw edema volume of compound administration group [4]: 0.24 ± 0.10; large intestine weight (g/100 g body weight) [5]: 0.509 ± 0.051 g/100 g body weight
Cc1cnc(N2CCN(C(=O)c3ccc(N(C)S(C)(=O)=O)cc3F)CC2)c(C)c1 [Example 494, N-{4-[4-(3,5-dimethylpyridin-2-yl)piperazine-1-carbonyl]-3-fluorophenyl}-N-methylmethanesulfonamide] | 102 | 

More lines, in order of falling IC50 [1], values ahead:

IC50 [1] [nM] | Compound | other results
41 | Cc1cc(C2CC2)cnc1N1CCN(C(=O)c2cnc(N3C(=O)CCC3C)cn2)CC1 (centres unmarked) [Example 687, 1-{5-[4-(5-cyclopropyl-3-methylpyridin-2-yl)piperazine-1-carbonyl]pyrazin-2-yl}-5-methylpyrrolidin-2-one] | 
36 | CC(=O)Nc1ccc(C(=O)N2CCN(c3ccc(C)cc3C)CC2)c(S(C)(=O)=O)c1 [Example 474, N-{4-[4-(2,4-dimethylphenyl)piperazine-1-carbonyl]-3-methanesulfonylphenyl}acetamide] | 
10 | Cc1cnc(N2CCN(C(=O)c3ccc(N4CCNC4=O)cc3F)CC2)c(C)c1 [Example 416, 1-{4-[4-(3,5-dimethylpyridin-2-yl)piperazine-1-carbonyl]-3-fluorophenyl}imidazolidin-2-one] | 
7 | Cc1cc(C)c(N2CCN(C(=O)c3ccc(N4C(=O)NC(=O)C4C)nc3)CC2)nc1C (centres unmarked) [Example 549, 5-methyl-1-{5-[4-(3,5,6-trimethylpyridin-2-yl)piperazine-1-carbonyl]pyridin-2-yl}imidazolidine-2,4-dione] | 
